From US20260285853A1, “COMPOUNDS AND METHODS FOR MODULATING SPLICING” (REMIX THERAPEUTICS INC., priority 2023, published 2026)
pIC50: −log10 of the molar value. Read-outs that look alike come from different tables or passages of the source.

Columns and labels:
Assay type in all cases: cell-based
HTT mRNA [1] = experiment: Splicing RT-qPCR assay (THP), Table 2A
[2] = test system: SH-SY5Y (human neuroblastoma) cells; experiment: Cell viability, Cell Titer Glo 2.0 assay; details: read-out: Viability SHSY5Y.3 GI50
In short: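 SH-SY5Y neuroblastoma cells are exposed to test compounds for 72 hours at 37 °C and 5% CO2, with final DMSO held at 0.1%. Cell viability is then measured with the CellTiter-Glo 2.0 assay.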

MYB mRNA [3] = experiment: Splicing RT-qPCR assay (THP), Table 2A
MYB mRNA [4] = experiment: Gene panel canonical junction qPCR assay, decrease in CJ mRNA, Table 3
In short: (§1)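 A673 cells were plated, left to adhere for 24 h, then dosed; K562 cells were plated in 96- or 384-well format and dosed directly. Both were incubated 24 h at 37 °C with an 11-point 3-fold series (top 10 uM final). Canonical junction mRNA was then read by cDNA synthesis and qPCR.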

HTT mRNA [5] = experiment: as above
In short: as §1

[6] = Table 2A, THP, HTT alternative junction (AJ) mRNA, read-out: HTT AJ (AC50, increase in alternative junction mRNA)
[7] = Table 2A, THP, HTT canonical junction (CJ) mRNA, read-out: HTT CJ (IC50, decrease in canonical junction mRNA)
[8] = Table 2A, THP, MYB alternative junction (AJ) mRNA, read-out: MYB AJ (AC50, increase in alternative junction mRNA)
[9] = Table 2A, THP, MYB canonical junction (CJ) mRNA, read-out: MYB CJ (IC50, decrease in canonical junction mRNA)
[10] = decrease in CJ mRNA levels, canonical junction qPCR, gene panel
[11] = Table 2A (THP), AJ mRNA increase, read-out: HTT AJ (increase in alternative junction mRNA, AC50)
[12] = Table 2A (THP), CJ mRNA decrease, read-out: HTT CJ (decrease in canonical junction mRNA, IC50)
[13] = Table 2A (THP), AJ mRNA increase, read-out: MYB AJ (increase in alternative junction mRNA, AC50)
[14] = Table 2A (THP), CJ mRNA decrease, read-out: MYB CJ (decrease in canonical junction mRNA, IC50)
[15] = decrease in canonical junction (CJ) mRNA, gene panel qPCR, Table 3

SMILES	pIC50 (HTT mRNA [1]; [7])	GI50 [2]	pIC50 (MYB mRNA [3]; [9])	pIC50 (MYB mRNA [4]; [10])	pIC50 (HTT mRNA [5]; [10])	pIC50 (HTT mRNA [1]; [12])	pIC50 (MYB mRNA [3]; [14])	pIC50 (MYB mRNA [4]; [15])	pIC50 (HTT mRNA [5]; [15])	AC50 (HTT mRNA [1]; [6])	AC50 (MYB mRNA [3]; [8])	AC50 (HTT mRNA [1]; [11])	AC50 (MYB mRNA [3]; [13])
Cc1cn2cc(NC(=O)c3ccc(N4CC5CCC(C4)N5)c4cn(C)nc34)nc2c(CNS(C)(=O)=O)n1 [Compound 885, 4-(3,8-diazabicyclo[3.2.1]octan-3-yl)-N-[8-(methanesulfonamidomethyl)-6-methyl-imidazo[1,2-a]pyrazin-2-yl]-2-methyl-indazole-7-carboxamide]	5.00 to 6.00	1000 to 10000 nM	5.00 to 6.00	5.00 to 6.00	5.00 to 6.00					1000 to 10000 nM	1000 to 10000 nM		
CCNC1CCN(c2ccc(C(=O)Nc3cn4cc(CC)nc(C)c4n3)c3nn(C)cc23)CC1 [Compound 311, N-(6-ethyl-8-methylimidazo [1,2-a]pyrazin-2-yl)-4-(4-(ethylamino)piperidin-1-yl)-2-methyl-2H-indazole-7-carboxamide 2,2,2-trifluoroacetate]		> 10000 nM				< 5.00	< 5.00	< 5.00	< 5.00			> 10000 nM	> 10000 nM
CCNC1CCN(c2cc(F)c(C(=O)Nc3cn4ccnc4cc3OC)c3nn(C)cc23)CC1 [Compound 701, 4-[4-(ethylamino)-1-piperidyl]-6-fluoro-N-(7-methoxyimidazo[1,2-a]pyridin-6-yl)-2-methyl-indazole-7-carboxamide]	< 5.00	> 10000 nM	6.00 to 7.00	6.00 to 7.00	< 5.00					> 10000 nM	100 to 1000 nM		
COc1nc2c(C(=O)Nc3cc(F)c4nn(C)cc4c3)ccc(N3CC4CCC(C3)N4)c2s1 [Compound 801, 7-(3,8-diazabicyclo[3.2.1]octan-3-yl)-N-(7-fluoro-2-methyl-indazol-5-yl)-2-methoxy-1,3-benzothiazole-4-carboxamide]	5.00 to 6.00	100 to 1000 nM	> 7.00	> 7.00	5.00 to 6.00					1000 to 10000 nM	< 100 nM		
Cn1cc2cc(NC(=O)c3c(F)cc(N4CCC(NC5CC5)CC4)c4cn(C)nc34)c(OC3CC3)cc2n1 [Compound 438, N-[6-(cyclopropoxy)-2-methyl-indazol-5-yl]-4-[4-(cyclopropylamino)-1-piperidyl]-6-fluoro-2-methyl-indazole-7-carboxamide]		> 10000 nM				< 5.00	< 5.00	< 5.00	< 5.00			> 10000 nM	> 10000 nM
COc1cc2nn(C)cc2cc1NC(=O)c1c(F)cc(N2[C@@H]3CC[C@H]2C[C@@H](NC2CC2)C3)c2cn(C)nc12 [Compound 428, 4-[(1R,5S)-3-(cyclo-propyl-amino)-8-azabicyclo [3.2.1]octan-8-yl]-6-fluoro-N-(6-methoxy-2-methyl-indazol-5-yl)-2-methyl-indazole-7-carboxamide]		1000 to 10000 nM				< 5.00	5.00 to 6.00	5.00 to 6.00	< 5.00			> 10000 nM	1000 to 10000 nM
C=CCNC1CCN(c2ccc(C(=O)Nc3cc(CNC(=O)OC)c4nn(C)cc4c3)c3nn(C)cc23)CC1 [Compound 833]	5.00 to 6.00	1000 to 10000 nM	6.00 to 7.00	6.00 to 7.00	5.00 to 6.00					1000 to 10000 nM	100 to 1000 nM		
Cc1cn2cc(NC(=O)c3c(F)cc(N4CCC(NC5CC5)CC4)c4cn(C)nc34)nc(-n3ccccc3=O)c2n1 [Compound 427, 4-[4-(cyclopropylamino)-1-piperidyl]-6-fluoro-2-methyl-N-[2-methyl-8-(2-oxo-1-pyridyl)-imidazo[1,2-a]-pyrazin-6-yl]-indazole-7-carboxamide]		> 10000 nM				< 5.00	< 5.00	< 5.00	< 5.00			> 10000 nM	1000 to 10000 nM
COc1cc2nn(C)cc2cc1NC(=O)c1c(F)cc(NCC2CCNCC2)c2cn(C)nc12 [Compound 454, 6-fluoro-N-(6-methoxy-2-methyl-indazol-5-yl)-2-methyl-4-(4-piperidylmethylamino)indazole-7-carboxamide]		> 10000 nM				< 5.00	< 5.00	< 5.00	< 5.00			> 10000 nM	1000 to 10000 nM
COc1cn2nc(C)cc2cc1NC(=O)c1ccc(N2CCC(NC3CC3)CC2)c2cn(C)nc12 [Compound 475, 4-[4-(cyclopropylamino)-1-piperidyl]-N-(6-methoxy-2-methyl-pyrazolo[1,5-a]pyridin-5-yl)-2-methyl-indazole-7-carboxamide]		1000 to 10000 nM				< 5.00	6.00 to 7.00	6.00 to 7.00	< 5.00			> 10000 nM	100 to 1000 nM

Second part, led by results:

pIC50 (HTT mRNA [1]; [7])	GI50 [2]	pIC50 (MYB mRNA [3]; [9])	pIC50 (MYB mRNA [4]; [10])	pIC50 (HTT mRNA [5]; [10])	pIC50 (HTT mRNA [1]; [12])	pIC50 (MYB mRNA [3]; [14])	pIC50 (MYB mRNA [4]; [15])	pIC50 (HTT mRNA [5]; [15])	SMILES	AC50 (HTT mRNA [1]; [6])	AC50 (MYB mRNA [3]; [8])	AC50 (HTT mRNA [1]; [11])	AC50 (MYB mRNA [3]; [13])
6.00 to 7.00	1000 to 10000 nM	> 7.00	> 7.00	6.00 to 7.00					COc1cc2c(N3CCC(NC4CC4)CC3)ccc(C(=O)Nc3cc4cn(C)nc4cc3OC)n2n1 [Compound 632, 4-[4-(cyclopropylamino)-1-piperidyl]-2-methoxy-N-(6-methoxy-2-methyl-indazol-5-yl) pyrazolo[1,5-a]pyridine-7-carboxamide]	100 to 1000 nM	< 100 nM		
< 5.00	100 to 1000 nM	> 7.00	> 7.00	< 5.00					COc1nc2c(C(=O)Nc3cc(C#N)c4nn(C)cc4c3)ccc(N3C[C@H](C)N[C@@H](C)C3)c2s1 [Compound 757, N-(7-cyano-2-methyl-indazol-5-yl)-7-[(3S,5S)-3,5-dimethylpiperazin-1-yl]-2-methoxy-1,3-benzothiazole-4-carboxamide]	1000 to 10000 nM	< 100 nM		
< 5.00	1000 to 10000 nM	< 5.00	< 5.00	< 5.00					Cc1cn2cc(NC(=O)c3ccc(N4CCC(NC5CC5)CC4)c4cn(C)nc34)nc2c(Cn2ccnn2)n1 [Compound 803]	> 10000 nM	> 10000 nM		
	1000 to 10000 nM				< 5.00	6.00 to 7.00	6.00 to 7.00	< 5.00	Cc1cn2cc(NC(=O)c3ncc(N4CCC(NC5CC5)CC4)c4cn(C)nc34)cc(F)c2n1 [Compound 361, 4-[4-(cyclopropylamino)-1-piperidyl]-N-(8-fluoro-2-methyl-imidazo[1,2-a]pyridin-6-yl)-2-methyl-pyrazolo[3,4-c]pyridine-7-carboxamide]			1000 to 10000 nM	100 to 1000 nM
	1000 to 10000 nM				< 5.00	6.00 to 7.00	6.00 to 7.00	< 5.00	CCNC1CCN(c2ccc(C(=O)Nc3cn4cc(CF)nc(C)c4n3)c3nn(C)cc23)CC1 [Compound 350, 4-[4-(ethylamino)-1-piperidyl]-N-[6-(fluoromethyl)-8-methyl-imidazo[1,2-a]pyrazin-2-yl]-2-methyl-indazole-7-carboxamide 2,2,2-trifluoroacetic acid]			> 10000 nM	100 to 1000 nM
6.00 to 7.00	100 to 1000 nM	> 7.00	> 7.00	6.00 to 7.00					COCCOCc1cc2c(N3CCC(NC4CC4)CC3)ccc(C(=O)Nc3cc(F)c4nc(C)cn4c3)n2n1 [Compound 629, 4-[4-(cyclopropylamino)-1-piperidyl]-N-(8-fluoro-2-methyl-imidazo[1,2-a]-pyridin-6-y1)-2-(2-methoxyethoxy-methyl)-pyrazolo[1,5-a]pyridine-7-carboxamide]	1000 to 10000 nM	< 100 nM		
